Test results as given in patent publication US11760761B2, “Methods and compositions for targeting PD-L1” (Aligos Therapeutics, Inc., priority 2020, dated 2023).

Key:
PDL1/PD1 = PDL1/PD1 (Homo sapiens (Human), UniProt Q9NZQ7); assay: PDL1/PD1 Binding Assay; settings: PDL1-6xHis 0.3 nM, PD1-Fc-Avi-Biotin 2.5 nM, Acceptor/Donor beads; read-out: PD-1/PD-L1 PPI IC50
Method: Compounds to be tested were serially diluted in DMSO, and further diluted in assay buffer (25 mM Hepes pH 7.4, 150 mM NaCl, 0.005% Tween 20, BSA 0.01%). Diluted compounds were added to the wells with final concentration of DMSO at 1%. PDL1-6×His protein was added to the wells, mixed well with compound. The plates were incubated for 30 min at room temperature. PD1-Fc-Avi-Biotin protein was added to the wells. Final concentration of PDL1 and PD1 protein is 0.3 nM and 2.5 nM, respectively. After a binding time of 30 min at room temperature, Anti-6×His Acceptor beads (final concentration 20 ug/ml) were added to the wells, and the incubation continued for 1 h. Streptavidin Donor beads (final concentration 20 ug/mL) were added at reduced light. The plates were sealed with foil and incubated in the dark for additional 1 h or overnight before reading on an Envision reader. The IC50 values were determined by fitting the curves using a four-parameter equation in Graphpad Prism 8.

PD-1/PD-L1 interaction = PD-1/PD-L1 interaction (Homo sapiens (Human), UniProt Q9NZQ7); assay: PD-1/PD-L1 NFAT Reporter Assay (Jurkat T cells / PD-L1 expressing CHO cells co-culture); type: cell-based; settings: for Emax: Jurkat, maximum NFAT-activation level relative to the positive control (10 nM Atezolizumab); for EC50: co-culture 6 hrs at 37° C., luciferase
Method: Blocking the PD-1/PD-L1 interaction will release the inhibitory signal and results in TCR signaling and NFAT-mediated luciferase activity.
CHO cells expressing surface-bound anti-CD3 antibodies and PD-L1 were first seeded overnight and treated with the compounds. Jurkat cells overexpressing PD-1 and a luciferase construct under NF-AT promoter were then immediately seeded on the monolayer of CHO cells. The co-culture was then incubated for 6 hrs at 37° C. Luciferase activity was assessed by adding the ONE-Glo reagent and measuring luminescence with a plate reader. EC50s values were determined from the fit of the dose-response curves Emax (%) corresponds to the maximum NFAT-activation level reached by a given compound relative to the positive control (10 nM Atezolizumab).

PD-1/PD-L1 interaction, sequence (Q9NZQ7 19-290): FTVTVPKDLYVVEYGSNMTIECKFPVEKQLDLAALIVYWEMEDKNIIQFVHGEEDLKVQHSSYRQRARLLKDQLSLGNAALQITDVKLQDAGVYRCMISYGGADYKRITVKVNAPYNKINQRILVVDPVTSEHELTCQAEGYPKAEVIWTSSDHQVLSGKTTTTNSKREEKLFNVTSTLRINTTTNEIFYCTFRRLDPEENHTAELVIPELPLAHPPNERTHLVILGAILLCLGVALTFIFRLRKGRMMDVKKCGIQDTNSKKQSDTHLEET
PDL1/PD1, sequence (Q9NZQ7 19-238): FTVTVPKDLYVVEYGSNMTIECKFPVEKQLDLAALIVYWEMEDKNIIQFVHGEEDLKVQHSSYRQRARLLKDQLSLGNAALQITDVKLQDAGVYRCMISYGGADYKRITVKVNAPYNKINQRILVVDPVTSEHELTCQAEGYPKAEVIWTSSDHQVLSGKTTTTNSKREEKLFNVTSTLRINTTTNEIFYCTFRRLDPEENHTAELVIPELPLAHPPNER

Row | Structure (SMILES) | IC50 (PDL1/PD1) [nM] | Emax (PD-1/PD-L1 interaction) [%] | EC50 (PD-1/PD-L1 interaction) [nM]
1 | CCOC(=O)C1CN([C@H]2CCc3cc(-c4cccc(-c5cccc(-c6cnc(CN7CC8(CCC(=O)N8)C7)c(OC)n6)c5Cl)c4Cl)cc(OC)c32)C1 (single isomer, unassigned) [Compound A-3] | ≤ 10 | 84 | 100 to 1000
2 | COc1cc(-c2cccc(-c3cccc(-c4cnc(CN5CC6(CCC(=O)N6)C5)c(OC)n4)c3Cl)c2Cl)cc2c1[C@@H](N1CC(O)C1)CC2 (single isomer, unassigned) [Compound A-5] | ≤ 10 | 102 | 100 to 1000
3 | COc1cc(-c2cccc(-c3cccc(-c4cnc(CN5CC6(CCC(=O)N6)C5)c(OC)n4)c3Cl)c2Cl)cc2c1[C@H](N1CC(O)C1)CC2 (single isomer, unassigned) [Compound A-6] | ≤ 10 | 32 | –
4 | COc1nc(-c2cccc(-c3cccc(-c4cc5c(c(OC)n4)[C@@H](N4CC6(CCC(=O)N6)C4)CC5)c3Cl)c2Cl)cnc1CN1CC2(CCC(=O)N2)C1 (single isomer, unassigned) [Compound C-3] | ≤ 10 | – | ≤ 10
5 | COc1nc(-c2cccc(-c3cccc(-c4cc5c(c(OC)n4)[C@@H](N4CC(O)C4)CC5)c3Cl)c2Cl)cnc1CN1CC2(CCC(=O)N2)C1 (single isomer, unassigned) [Compound C-5] | ≤ 10 | – | ≤ 10
6 | COc1nc(-c2cccc(-c3cccc(-c4cc5c(c(OC)n4)[C@H](N4CC(O)C4)CC5)c3Cl)c2Cl)cnc1CN1CC2(CCC(=O)N2)C1 (single isomer, unassigned) [Compound C-6] | ≤ 10 | – | 100 to 1000
7 | COc1nc(-c2cccc(-c3cccc(-c4cc5c(c(OC)n4)[C@@H](N4CC6(CCC(=O)N6)C4)CC5)c3Cl)c2Cl)cnc1CNC[C@@H]1CCC(=O)N1 (single isomer, unassigned) [Compound D-15] | ≤ 10 | – | 10 to 100
8 | COc1nc(-c2cccc(-c3cccc(-c4cc5c(c(OC)n4)[C@H](NC[C@@H]4CCC(=O)N4)CO5)c3Cl)c2Cl)cc(C)c1CN1CC2(C1)CN(C(C)=O)C2 (single isomer, unassigned) [Compound E-5] | ≤ 10 | – | –
9 | CCOC(=O)C1CN([C@@H]2CCc3cc(-c4cccc(-c5cccc(-c6cnc(CN7CC(O)C7)c(OC)n6)c5Cl)c4Cl)nc(OC)c32)C1 (single isomer, unassigned) [Compound G-2] | ≤ 10 | – | –
10 | CCOC(=O)C1CN([C@H]2CCc3cc(-c4cccc(-c5cccc(-c6cnc(CN7C[C@@H](O)[C@@H]7C)c(OC)n6)c5Cl)c4Cl)nc(OC)c32)C1 (single isomer, unassigned) [Compound G-3] | – | – | > 10000
11 | CCOC(=O)C1CN([C@@H]2CCc3cc(-c4cccc(-c5cccc(-c6cnc(CN7C[C@@H](O)[C@@H]7C)c(OC)n6)c5Cl)c4Cl)nc(OC)c32)C1 (single isomer, unassigned) [Compound G-4] | – | – | 1000 to 10000
12 | COc1nc(-c2cccc(-c3cccc(-c4cc5c(c(OC)n4)[C@H](NC[C@@H]4CCC(=O)N4)CC5)c3Cl)c2Cl)cnc1CN1CCCC1 [Compound D-12] | ≤ 10 | – | –
13 | COc1nc(-c2cccc(-c3cccc(-c4cc5c(c(OC)n4)[C@@H](NC[C@@H]4CCC(=O)N4)CC5)c3Cl)c2Cl)ccc1CNC[C@@H]1CCC(=O)N1 [Compound E-1] | – | – | ≤ 10
14 | COc1nc(-c2cccc(-c3cccc(-c4cc5c(c(OC)n4)C(N4CCC[C@@H](C(=O)O)C4)CC5)c3Cl)c2Cl)cnc1CN1CC(O)C1 (stereo partly shown) [Compound F-1] | – | – | 10 to 100
15 | CCOC(=O)C1CN([C@H]2CCc3cc(-c4cccc(-c5cccc(-c6cnc(CN7CC(O)C7)c(OC)n6)c5Cl)c4Cl)nc(OC)c32)C1 [Compound G-1] | – | – | 10 to 100
16 | COc1nc(-c2cccc(-c3cccc(-c4cc5c(c(OC)n4)[C@@H](N4CC(C(=O)O)C4)CC5)c3Cl)c2Cl)cnc1CN1CC(O)C1 [Compound H-1] | – | – | 10 to 100
17 | CCOC(=O)CN1CCc2c(cc(-c3cccc(-c4cccc(-c5cnc(CN6CC(O)C6)c(OC)n5)c4Cl)c3Cl)nc2OC)C1 [Compound I-1] | – | – | 100 to 1000
18 | CCOC(=O)CN1CCc2c(cc(-c3cccc(-c4cccc(-c5cnc(CN6CC(O)(C(F)(F)F)C6)c(OC)n5)c4Cl)c3Cl)nc2OC)C1 [Compound I-3] | – | – | 1000 to 10000
19 | COc1nc(-c2cccc(-c3cccc(-c4cc5c(c(OC)n4)CCN(CC(=O)O)C5)c3Cl)c2Cl)cnc1CN1CC(O)C1 [Compound J-1] | – | – | 10 to 100
20 | COc1nc(-c2cccc(-c3cccc(-c4cc5c(c(OC)n4)CCN(C[C@@H]4CCC(=O)N4)C5)c3Cl)c2Cl)cnc1CN1CC2(CCC(=O)N2)C1 [Compound K-1] | – | – | 10 to 100
21 | COCCN1CCc2c(cc(-c3cccc(-c4cccc(-c5cnc(CN6CC7(CCC(=O)N7)C6)c(OC)n5)c4Cl)c3Cl)nc2OC)C1 [Compound K-2] | – | – | 10 to 100

Continued, values first:

Row | IC50 (PDL1/PD1) [nM] | Emax (PD-1/PD-L1 interaction) [%] | EC50 (PD-1/PD-L1 interaction) [nM] | Structure (SMILES)
22 | ≤ 10 | 85 | 100 to 1000 | CCOC(=O)CN[C@@H]1CCc2cc(-c3cccc(-c4cccc(-c5cnc(CN6CC7(CCC(=O)N7)C6)c(OC)n5)c4Cl)c3Cl)cc(OC)c21 (single isomer, unassigned) [Compound A-2]
23 | ≤ 10 | 18 | – | CCOC(=O)C1CN([C@@H]2CCc3cc(-c4cccc(-c5cccc(-c6cnc(CN7CC8(CCC(=O)N8)C7)c(OC)n6)c5Cl)c4Cl)cc(OC)c32)C1 (single isomer, unassigned) [Compound A-4]
24 | ≤ 10 | 24 | – | COc1cc(-c2cccc(-c3cccc(-c4cnc(CN5CC6(CCC(=O)N6)C5)c(OC)n4)c3Cl)c2Cl)cc2c1[C@@H](N1CC3(CCC(=O)N3)C1)CC2 (single isomer, unassigned) [Compound A-7]
25 | ≤ 10 | 172 | 10 to 100 | COc1cc(-c2cccc(-c3cccc(-c4cnc(CN5CC6(CCC(=O)N6)C5)c(OC)n4)c3Cl)c2Cl)cc2c1C[C@@H](N1CC(O)C1)C2 (single isomer, unassigned) [Compound A-10]
26 | ≤ 10 | 84 | 1000 to 10000 | COc1cc(-c2cccc(-c3cccc(-c4cnc(CN5CC6(CCC(=O)N6)C5)c(OC)n4)c3Cl)c2Cl)cc2c1C[C@H](N1CC(O)C1)C2 (single isomer, unassigned) [Compound A-11]
27 | ≤ 10 | 191 | 10 to 100 | COc1cc(-c2cccc(-c3cccc(-c4cnc(CN5CC6(CCC(=O)N6)C5)c(OC)n4)c3Cl)c2Cl)cc2c1C[C@@H](N1CC3(CCC(=O)N3)C1)C2 (single isomer, unassigned) [Compound A-12]
28 | ≤ 10 | 58 | 1000 to 10000 | COc1cc(-c2cccc(-c3cccc(-c4cnc(CN5CC6(CCC(=O)N6)C5)c(OC)n4)c3Cl)c2Cl)cc2c1C[C@H](N1CC3(CCC(=O)N3)C1)C2 (single isomer, unassigned) [Compound A-13]
29 | ≤ 10 | 112 | 100 to 1000 | COc1cc(-c2cccc(-c3cccc(-c4cnc(CN5CC6(CCC(=O)N6)C5)c(OC)n4)c3Cl)c2Cl)cc2c1[C@@H](N1CC(C(=O)O)C1)CC2 (single isomer, unassigned) [Compound B-3]
30 | ≤ 10 | 65 | 1000 to 10000 | COc1cc(-c2cccc(-c3cccc(-c4cnc(CN5CC6(CCC(=O)N6)C5)c(OC)n4)c3Cl)c2Cl)cc2c1[C@H](N1CC(C(=O)O)C1)CC2 (single isomer, unassigned) [Compound B-4]
31 | ≤ 10 | – | > 10000 | COc1nc(-c2cccc(-c3cccc(-c4cc5c(c(OC)n4)[C@H](N4CC6(CCC(=O)N6)C4)CC5)c3Cl)c2Cl)cnc1CN1CC2(CCC(=O)N2)C1 (single isomer, unassigned) [Compound C-4]
32 | ≤ 10 | – | ≤ 10 | COc1nc(-c2cccc(-c3cccc(-c4cc5c(c(OC)n4)[C@@H](N4CC6(CCC(=O)N6)C4)CC5)c3Cl)c2Cl)cnc1CN1CC2(C1)CN(C(C)=O)C2 (single isomer, unassigned) [Compound D-14]
33 | ≤ 10 | – | – | COc1nc(-c2cccc(-c3cccc(-c4cc5c(c(OC)n4)[C@@H](N4CC6(CN(C(C)=O)C6)C4)CC5)c3Cl)c2Cl)cnc1CNC[C@@H]1CCC(=O)N1 (single isomer, unassigned) [Compound D-16]
34 | – | – | ≤ 10 | COc1nc(-c2cccc(-c3cccc(-c4cc5c(c(OC)n4)[C@@H](NC[C@@H]4CCC(=O)N4)CC5)c3Cl)c2Cl)cnc1CN1CC2(CCC(=O)N2)C1 [Compound C-1]
35 | – | – | 10 to 100 | COc1nc(-c2cccc(-c3cccc(-c4cc5c(c(OCC(C)C)n4)C(NC[C@@H]4CCC(=O)N4)CC5)c3Cl)c2Cl)cnc1CN1CC2(CCC(=O)N2)C1 (stereo partly shown) [Compound C-13]
36 | – | – | ≤ 10 | COc1nc(-c2cccc(-c3cccc(-c4cc5c(c(OC)n4)[C@@H](NC[C@@H]4CCC(=O)N4)CC5)c3Cl)c2Cl)cnc1CN1CC2(C1)CN(C(C)=O)C2 [Compound D-1]
37 | – | – | ≤ 10 | COc1nc(-c2cccc(-c3cccc(-c4cc5c(c(OC)n4)[C@@H](NC[C@@H]4CCC(=O)N4)CC5)c3Cl)c2Cl)cc(C)c1CN1CC2(C1)CN(C(C)=O)C2 [Compound E-2]
